From PubChem BioAssay AID1963865 (Molecular Pharmacology Branch, DTP, NCI, 2024)
pIC50: −log10 of the molar value.

Test system: KRAS PDC multicell spheroid viability
Test: Anticancer human tumor 825966-067-R-J1-PDC patient-derived colon carcinoma cell line growth inhibition [KRAS2]
Conditions: for pIC50: curve of first compound; for viability, T/C: stronger effect = lower value; active = viability on the fitted dose curve at most 10% of control; inactive = the rest
In short: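 Combination screen of spheroid viability in tumor-cell co-cultures with endothelial (HUVEC) and mesenchymal stem cell stroma. Each agent was tested in half-log dilutions, topping at clinical Cmax or at 10 microM without a known Cmax.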

[1] = second compound 0.1 µM, first compound 0.0316 µM
[2] = second compound 0.1 µM, first compound 0.1 µM
[3] = second compound 0.1 µM, first compound 0.316 µM
[4] = second compound 0.1 µM, first compound 1 µM
[5] = second compound 0.1 µM, first compound 3.16 µM
[6] = second compound 0.1 µM, first compound 10 µM
[7] = second compound 0.316 µM, first compound 0.0316 µM
[8] = second compound 0.316 µM, first compound 0.1 µM
[9] = second compound 0.316 µM, first compound 0.316 µM
[10] = second compound 0.316 µM, first compound 1 µM
[11] = second compound 0.316 µM, first compound 3.16 µM
[12] = second compound 0.316 µM, first compound 10 µM
[13] = second compound 1 µM, first compound 0.0316 µM
[14] = second compound 1 µM, first compound 0.1 µM
[15] = second compound 1 µM, first compound 0.316 µM
[16] = second compound 1 µM, first compound 1 µM
[17] = second compound 1 µM, first compound 3.16 µM
[18] = second compound 1 µM, first compound 10 µM
[19] = second compound 3.16 µM, first compound 0.0316 µM
[20] = second compound 3.16 µM, first compound 0.1 µM
[21] = second compound 3.16 µM, first compound 0.316 µM
[22] = second compound 3.16 µM, first compound 1 µM
[23] = second compound 3.16 µM, first compound 3.16 µM
[24] = second compound 3.16 µM, first compound 10 µM
[25] = second compound 10 µM, first compound 0.0316 µM
[26] = second compound 10 µM, first compound 0.1 µM
[27] = second compound 10 µM, first compound 0.316 µM
[28] = second compound 10 µM, first compound 1 µM
[29] = second compound 10 µM, first compound 3.16 µM
[30] = second compound 10 µM, first compound 10 µM
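Also: spheroids exposed to compounds for 7 days.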
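For viability, T/C in this document: 100% = DMSO vehicle control viability.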

CC(C)NCC(C(=O)N1CCN(c2ncnc3c2C(C)CC3O)CC1)c1ccc(Cl)cc1 (stereo not given) + COc1cc2nc(C)nc(NC(C)c3cc(N)cc(C(F)(F)F)c3)c2cc1OC1CCOC1
5.60: pIC50 (second compound 0.1 µM)
5.76: pIC50 (second compound 1 µM)
active: viability, T/C [12] 8.59% | viability, T/C [24] 5.94% | viability, T/C [26] 5.84% | viability, T/C [27] 3.69% | viability, T/C [28] 1.56% | viability, T/C [29] 2.14% | viability, T/C [30] 3.53%
5.73: pIC50 (second compound 3.16 µM)
inactive: viability, T/C [1] 122% | viability, T/C [2] 113% | viability, T/C [3] 148% | viability, T/C [4] 97.1% | viability, T/C [5] 39.4% | viability, T/C [6] 11.2% | viability, T/C [7] 103% | viability, T/C [8] 129% | viability, T/C [9] 122% | viability, T/C [10] 130% | viability, T/C [11] 29.7% | viability, T/C [13] 114% | viability, T/C [14] 128% | viability, T/C [15] 151% | viability, T/C [16] 75.7% | viability, T/C [17] 37.4% | viability, T/C [18] 7.58% | viability, T/C [19] 111% | viability, T/C [20] 125% | viability, T/C [21] 104% | viability, T/C [22] 97.7% | viability, T/C [23] 10.9% | viability, T/C [25] 22.4%
5.61: pIC50 (second compound 0.316 µM)
> 7.50: pIC50 (second compound 10 µM)

CC(C)n1nc(-c2ccc3oc(N)nc3c2)c2c(N)ncnc21 + COc1cc2nc(C)nc(NC(C)c3cc(N)cc(C(F)(F)F)c3)c2cc1OC1CCOC1
active: viability, T/C (second compound 10 µM, first compound 0.000316 µM) 6.15% | viability, T/C (second compound 10 µM, first compound 0.001 µM) 2.53% | viability, T/C (second compound 10 µM, first compound 0.00316 µM) 15.6% | viability, T/C (second compound 10 µM, first compound 0.01 µM) 12.3% | viability, T/C [25] 11.2% | viability, T/C [26] 3.11%
> 9.50: pIC50 (second compound 10 µM)
< 7.00: pIC50 (second compound 0.1 µM) | pIC50 (second compound 0.316 µM) | pIC50 (second compound 1 µM) | pIC50 (second compound 3.16 µM)
inactive: viability, T/C (second compound 0.1 µM, first compound 0.000316 µM) 59.7% | viability, T/C (second compound 0.1 µM, first compound 0.001 µM) 93.1% | viability, T/C (second compound 0.1 µM, first compound 0.00316 µM) 125% | viability, T/C (second compound 0.1 µM, first compound 0.01 µM) 154% | viability, T/C [1] 79% | viability, T/C [2] 99.4% | viability, T/C (second compound 0.316 µM, first compound 0.000316 µM) 97.1% | viability, T/C (second compound 0.316 µM, first compound 0.001 µM) 99% | viability, T/C (second compound 0.316 µM, first compound 0.00316 µM) 116% | viability, T/C (second compound 0.316 µM, first compound 0.01 µM) 137% | viability, T/C [7] 84% | viability, T/C [8] 81.7% | viability, T/C (second compound 1 µM, first compound 0.000316 µM) 100% | viability, T/C (second compound 1 µM, first compound 0.001 µM) 103% | viability, T/C (second compound 1 µM, first compound 0.00316 µM) 123% | viability, T/C (second compound 1 µM, first compound 0.01 µM) 131% | viability, T/C [13] 82.8% | viability, T/C [14] 75.2% | viability, T/C (second compound 3.16 µM, first compound 0.000316 µM) 115% | viability, T/C (second compound 3.16 µM, first compound 0.001 µM) 109% | viability, T/C (second compound 3.16 µM, first compound 0.00316 µM) 121% | viability, T/C (second compound 3.16 µM, first compound 0.01 µM) 63.7% | viability, T/C [19] 82.2% | viability, T/C [20] 81.5%

CC1(C)CCC(CN2CCN(c3ccc(C(=O)NS(=O)(=O)c4ccc(NCC5CCOCC5)c([N+](=O)[O-])c4)c(Oc4cnc5[nH]ccc5c4)c3)CC2)=C(c2ccc(Cl)cc2)C1 + COc1cc2nc(C)nc(NC(C)c3cc(N)cc(C(F)(F)F)c3)c2cc1OC1CCOC1
5.66: pIC50 (second compound 3.16 µM)
5.70: pIC50 (second compound 1 µM)
5.71: pIC50 (second compound 0.316 µM)
5.68: pIC50 (second compound 0.1 µM)
7.50: pIC50 (second compound 10 µM)
inactive: viability, T/C [1] 94.7% | viability, T/C [2] 86.3% | viability, T/C [3] 107% | viability, T/C [4] 111% | viability, T/C [5] 21.4% | viability, T/C [7] 99.2% | viability, T/C [8] 94.8% | viability, T/C [9] 90.6% | viability, T/C [10] 91.5% | viability, T/C [11] 19.7% | viability, T/C [13] 118% | viability, T/C [14] 96% | viability, T/C [15] 114% | viability, T/C [16] 106% | viability, T/C [17] 12.3% | viability, T/C [19] 139% | viability, T/C [20] 119% | viability, T/C [21] 130% | viability, T/C [22] 180% | viability, T/C [25] 14.3% | viability, T/C [26] 48.2% | viability, T/C [27] 68.2% | viability, T/C [28] 59.6%
active: viability, T/C [6] 5.44% | viability, T/C [12] 6.45% | viability, T/C [18] 3.36% | viability, T/C [23] 8.21% | viability, T/C [24] 3.86% | viability, T/C [29] 1.84% | viability, T/C [30] 0.72%
